Assay: GC-MS analysis of volatile components after light exposure
Format: physicochemical
Settings: after 5 d of light exposure
Description: Untreated ATVO, the physical mixture (10 mL ATVO, 10 mL distilled water, and 0.3 g MSTC mixed uniformly with a glass rod), and the MSTC-stabilized PE were each placed into flat weighing bottles (40 × 25 mm). The samples were stored in a light-stability chamber with a light intensity of 4500 ± 500 lx and a controlled temperature of 25 ± 0.5 °C. Aliquots were collected after 1, 3, and 5 days of light exposure. The physical mixture and PE groups were centrifuged (10,000 rpm, 10 min) to achieve phase separation prior to analysis. All assays were performed in triplicate, and the obtained samples were maintained at 4 °C until analyzed.Volatile oil retention rate (%) = Vt/V0 × 100%(2) The volatile components of ATVO were determined by gas chromatography-mass spectrometry (GC-MS) according to a previously reported method. Samples from each treatment group were prepared before analysis. Briefly, 100 μL of each volatile oil sample was transferred into a 10 mL volumetric flask. Then, 100 μL of n-docosane internal standard solution (10 mg·mL^−1) was added. The mixture was diluted to volume with n-hexane. […] It was then vortex-mixed and filtered through a 0.22 μm organic membrane filter. The filtrate was used for GC-MS analysis. […] Relative quantification was performed using n-docosane as the internal standard. […]

relative content of the component (PE group): well retained
relative content of the component (free ATVO (O) group implied): decreased to zero
SMILES: C=C/C(C)=C/CC=C(C)C [003779-61-1, (E)-3,7-dimethylocta-1,3,6-triene]
